Key:
Experiment in all cases: relative viability vs DMSO control (72 h) (fraction); higher = more viable cells
[1] = test system: G401
How it was run: (§1)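 Sarcoma cell lines in 384-well plates, seeded to reach 80–90% confluence, were given compound after 24 h and kept 72 h at 37 °C, 5% CO2, with 0.1% DMSO vehicle and a 5 µM positive control. Relative viability came from ATPLite as percent growth, averaged over up to triplicate wells. On the rescaled values, 1 equals full and 0 equals none.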

[2] = test system: RD-ES
How it was run: as §1

[3] = test system: HT1080
How it was run: as §1

[4] = test system: SW982
How it was run: as §1

[5] = test system: SW1353
How it was run: as §1

[6] = test system: SW684
How it was run: as §1

[7] = test system: SK-ES-1
How it was run: as §1

[8] = test system: KHOS-240S
How it was run: as §1

[9] = test system: A204
How it was run: as §1

[10] = test system: SW872
How it was run: as §1

[11] = test system: SYO-1
How it was run: as §1

[12] = test system: KHOS-NP
How it was run: as §1

Cc1cccc(-c2nn3c(c2-c2ccnc4ccc(C(N)=O)cc24)CCC3)n1 [Galunisertib]
Settings	relative viability
[1], 0.00017 µM	0.977
[1], 0.00051 µM	0.93
[1], 0.00152 µM	1.01
[1], 0.00457 µM	0.959
[1], 0.01372 µM	0.974
[1], 0.04115 µM	0.964
[1], 0.1235 µM	0.984
[1], 0.3704 µM	0.971
[1], 1.111 µM	0.965
[1], 3.333 µM	0.9721
[1], 10 µM	0.979
[2], 0.00017 µM	0.932
[2], 0.00051 µM	0.975
[2], 0.00152 µM	0.979
[2], 0.00457 µM	0.965
[2], 0.01372 µM	0.979
[2], 0.04115 µM	0.9533
[2], 0.1235 µM	0.92
[2], 0.3704 µM	0.915
[2], 1.111 µM	0.913
[2], 3.333 µM	0.886
[2], 10 µM	0.894
[3], 0.00017 µM	1.06
[3], 0.00051 µM	1.04
[3], 0.00152 µM	0.959
[3], 0.00457 µM	1.04
[3], 0.01372 µM	1.04
[3], 0.04115 µM	1.01
[3], 0.1235 µM	1.01
[3], 0.3704 µM	1.04
[3], 1.111 µM	1.04
[3], 3.333 µM	1.03
[3], 10 µM	1.02
[4], 0.00017 µM	1
[4], 0.00051 µM	1.02
[4], 0.00152 µM	0.965
[4], 0.00457 µM	1
[4], 0.01372 µM	0.999
[4], 0.04115 µM	0.98
[4], 0.1235 µM	0.974
[4], 0.3704 µM	0.977
[4], 1.111 µM	0.988
[4], 3.333 µM	0.98
[4], 10 µM	1.05
[5], 0.00017 µM	1.01
[5], 0.00051 µM	0.967
[5], 0.00152 µM	0.991
[5], 0.00457 µM	0.954
[5], 0.01372 µM	0.962
[5], 0.04115 µM	0.926
[5], 0.1235 µM	0.9202
[5], 0.3704 µM	0.959
[5], 1.111 µM	0.967
[5], 3.333 µM	1
[5], 10 µM	0.976
[6], 0.00017 µM	1.08
[6], 0.00051 µM	1.09
[6], 0.00152 µM	1.08
[6], 0.00457 µM	1.13
[6], 0.01372 µM	1.09
[6], 0.04115 µM	1.11
[6], 0.1235 µM	1.09
[6], 0.3704 µM	1.08
[6], 1.111 µM	1.05
[6], 3.333 µM	1.08
[6], 10 µM	1.09
[7], 0.00017 µM	1.02
[7], 0.00051 µM	1.03
[7], 0.00152 µM	0.998
[7], 0.00457 µM	0.978
[7], 0.01372 µM	1.06
[7], 0.04115 µM	1.02
[7], 0.1235 µM	0.946
[7], 0.3704 µM	0.996
[7], 1.111 µM	0.974
[7], 3.333 µM	0.96
[7], 10 µM	0.959
[8], 0.00017 µM	1.06
[8], 0.00051 µM	1.07
[8], 0.00152 µM	1.06
[8], 0.00457 µM	1.06
[8], 0.01372 µM	1.04
[8], 0.04115 µM	1.01
[8], 0.1235 µM	0.996
[8], 0.3704 µM	0.971
[8], 1.111 µM	0.987
[8], 3.333 µM	0.966
[8], 10 µM	0.929
[9], 0.00017 µM	1.01
[9], 0.00051 µM	1.04
[9], 0.00152 µM	0.99
[9], 0.00457 µM	1.03
[9], 0.01372 µM	0.984
[9], 0.04115 µM	1
[9], 0.1235 µM	1.01
[9], 0.3704 µM	1.02
[9], 1.111 µM	0.996
[9], 3.333 µM	0.996
[9], 10 µM	0.936
[10], 0.00017 µM	1.05
[10], 0.00051 µM	1.05
[10], 0.00152 µM	1
[10], 0.00457 µM	1.02
[10], 0.01372 µM	0.989
[10], 0.04115 µM	0.991
[10], 0.1235 µM	0.956
[10], 0.3704 µM	0.96
[10], 1.111 µM	1
[10], 3.333 µM	1.01
[10], 10 µM	1
[11], 0.00017 µM	0.972
[11], 0.00051 µM	0.942
[11], 0.00152 µM	0.913
[11], 0.00457 µM	0.898
[11], 0.01372 µM	0.867
[11], 0.04115 µM	0.824
[11], 0.1235 µM	0.783
[11], 0.3704 µM	0.752
[11], 1.111 µM	0.738
[11], 3.333 µM	0.685
[11], 10 µM	0.671
[12], 0.00017 µM	1.088
[12], 0.00051 µM	1.09
[12], 0.00152 µM	1.066
[12], 0.00457 µM	1.06
[12], 0.01372 µM	1.06
[12], 0.04115 µM	1.07
[12], 0.1235 µM	1.03
[12], 0.3704 µM	1.04
[12], 1.111 µM	0.999
[12], 3.333 µM	0.978
[12], 10 µM	0.976

COC(=O)[C@@]1(O)C[C@H]2O[C@]1(C)n1c3ccccc3c3c4c(c5c6ccccc6n2c5c31)C(=O)NC4 [K-252a]
Settings	relative viability
[1], 0.00017 µM	1.05
[1], 0.00051 µM	1.06
[1], 0.00152 µM	1.03
[1], 0.00457 µM	1.031
[1], 0.01372 µM	1.04
[1], 0.04115 µM	0.977
[1], 0.1235 µM	1
[1], 0.3704 µM	0.893
[1], 1.111 µM	0.0854
[1], 3.333 µM	0.0149
[1], 10 µM	0.00607
[2], 0.00017 µM	0.991
[2], 0.00051 µM	1.02
[2], 0.00152 µM	1.01
[2], 0.00457 µM	1.02
[2], 0.01372 µM	0.979
[2], 0.04115 µM	0.797
[2], 0.1235 µM	0.578
[2], 0.3704 µM	0.488
[2], 1.111 µM	0.175
[2], 3.333 µM	0.0819
[2], 10 µM	0.0303
[3], 0.00017 µM	1.09
[3], 0.00051 µM	1.09
[3], 0.00152 µM	1.09
[3], 0.00457 µM	1.09
[3], 0.01372 µM	1.16
[3], 0.04115 µM	1.13
[3], 0.1235 µM	1.05
[3], 0.3704 µM	1.13
[3], 1.111 µM	0.683
[3], 3.333 µM	0.105
[3], 10 µM	0.0141
[4], 0.00017 µM	1.05
[4], 0.00051 µM	1.064
[4], 0.00152 µM	1.079
[4], 0.00457 µM	1.07
[4], 0.01372 µM	1.02
[4], 0.04115 µM	0.733
[4], 0.1235 µM	0.559
[4], 0.3704 µM	0.443
[4], 1.111 µM	0.2914
[4], 3.333 µM	0.151
[4], 10 µM	0.0215
[5], 0.00017 µM	1.037
[5], 0.00051 µM	1.033
[5], 0.00152 µM	1.03
[5], 0.00457 µM	1
[5], 0.01372 µM	0.964
[5], 0.04115 µM	0.892
[5], 0.1235 µM	0.814
[5], 0.3704 µM	0.772
[5], 1.111 µM	0.528
[5], 3.333 µM	0.294
[5], 10 µM	0.0167
[6], 0.00017 µM	1.12
[6], 0.00051 µM	1.176
[6], 0.00152 µM	1.14
[6], 0.00457 µM	1.18
[6], 0.01372 µM	1.2
[6], 0.04115 µM	1.14
[6], 0.1235 µM	1.05
[6], 0.3704 µM	0.906
[6], 1.111 µM	0.512
[6], 3.333 µM	0.0655
[6], 10 µM	0.0141
[7], 0.00017 µM	1.06
[7], 0.00051 µM	1.05
[7], 0.00152 µM	1.02
[7], 0.00457 µM	1.02
[7], 0.01372 µM	0.778
[7], 0.04115 µM	0.508
[7], 0.1235 µM	0.398
[7], 0.3704 µM	0.256
[7], 1.111 µM	0.126
[7], 3.333 µM	0.115
[7], 10 µM	0.114
[8], 0.00017 µM	1.06
[8], 0.00051 µM	1.05
[8], 0.00152 µM	1.08
[8], 0.00457 µM	1.06
[8], 0.01372 µM	1.05
[8], 0.04115 µM	0.998
[8], 0.1235 µM	0.815
[8], 0.3704 µM	0.553
[8], 1.111 µM	0.346
[8], 3.333 µM	0.258
[8], 10 µM	0.0419
[9], 0.00017 µM	1.06
[9], 0.00051 µM	1.11
[9], 0.00152 µM	1.06
[9], 0.00457 µM	1.07
[9], 0.01372 µM	0.941
[9], 0.04115 µM	0.6765
[9], 0.1235 µM	0.527
[9], 0.3704 µM	0.433
[9], 1.111 µM	0.374
[9], 3.333 µM	0.31
[9], 10 µM	0.0136
[10], 0.00017 µM	1.09
[10], 0.00051 µM	1.06
[10], 0.00152 µM	1.1
[10], 0.00457 µM	1.05
[10], 0.01372 µM	0.985
[10], 0.04115 µM	0.843
[10], 0.1235 µM	0.759
[10], 0.3704 µM	0.589
[10], 1.111 µM	0.394
[10], 3.333 µM	0.0892
[10], 10 µM	0.0117
[11], 0.00017 µM	1.03
[11], 0.00051 µM	0.983
[11], 0.00152 µM	0.982
[11], 0.00457 µM	0.9645
[11], 0.01372 µM	0.928
[11], 0.04115 µM	0.862
[11], 0.1235 µM	0.66
[11], 0.3704 µM	0.302
[11], 1.111 µM	0.137
[11], 3.333 µM	0.128
[11], 10 µM	0.13
[12], 0.00017 µM	1.09
[12], 0.00051 µM	1.101
[12], 0.00152 µM	1.1
[12], 0.00457 µM	1.08
[12], 0.01372 µM	1.1
[12], 0.04115 µM	1.071
[12], 0.1235 µM	0.961
[12], 0.3704 µM	0.927
[12], 1.111 µM	0.286
[12], 3.333 µM	0.154
[12], 10 µM	0.0717

Source: the supplement of paper PMC10883282
